Experimental data: ChEMBL document CHEMBL4477252, “Optimization of microtubule affinity regulating kinase (MARK) inhibitors with improved physical properties” (Bioorg Med Chem Lett, 2016)

Columns and labels:
[1] = target: T1, Calcium/calmodulin-dependent protein kinase type IV (Homo sapiens, UniProt Q16566); experiment: Inhibition of full-length recombinant human GST-tagged CAMK4 expressed in Escherichia coli by Z'-LYTE assay
T1 sequence (Q16566 whole entry): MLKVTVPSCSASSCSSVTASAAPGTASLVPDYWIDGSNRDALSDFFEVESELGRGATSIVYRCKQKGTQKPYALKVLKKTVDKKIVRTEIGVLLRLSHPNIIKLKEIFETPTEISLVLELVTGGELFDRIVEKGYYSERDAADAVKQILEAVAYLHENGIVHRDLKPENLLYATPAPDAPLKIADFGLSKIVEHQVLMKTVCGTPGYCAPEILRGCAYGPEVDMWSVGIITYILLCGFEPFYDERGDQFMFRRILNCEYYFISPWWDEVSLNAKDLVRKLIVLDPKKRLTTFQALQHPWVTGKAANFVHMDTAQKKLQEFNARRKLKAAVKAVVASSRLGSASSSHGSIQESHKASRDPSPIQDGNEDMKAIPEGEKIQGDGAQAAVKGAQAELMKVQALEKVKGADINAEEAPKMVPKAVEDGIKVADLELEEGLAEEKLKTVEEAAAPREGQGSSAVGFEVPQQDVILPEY

[2] = target: Serine/threonine-protein kinase Chk2 (Homo sapiens, UniProt O96017); experiment: Inhibition of full-length recombinant human His-tagged CHEK2 expressed in baculovirus expression system by Z'-LYTE assay
Serine/threonine-protein kinase Chk2, sequence (O96017 whole entry): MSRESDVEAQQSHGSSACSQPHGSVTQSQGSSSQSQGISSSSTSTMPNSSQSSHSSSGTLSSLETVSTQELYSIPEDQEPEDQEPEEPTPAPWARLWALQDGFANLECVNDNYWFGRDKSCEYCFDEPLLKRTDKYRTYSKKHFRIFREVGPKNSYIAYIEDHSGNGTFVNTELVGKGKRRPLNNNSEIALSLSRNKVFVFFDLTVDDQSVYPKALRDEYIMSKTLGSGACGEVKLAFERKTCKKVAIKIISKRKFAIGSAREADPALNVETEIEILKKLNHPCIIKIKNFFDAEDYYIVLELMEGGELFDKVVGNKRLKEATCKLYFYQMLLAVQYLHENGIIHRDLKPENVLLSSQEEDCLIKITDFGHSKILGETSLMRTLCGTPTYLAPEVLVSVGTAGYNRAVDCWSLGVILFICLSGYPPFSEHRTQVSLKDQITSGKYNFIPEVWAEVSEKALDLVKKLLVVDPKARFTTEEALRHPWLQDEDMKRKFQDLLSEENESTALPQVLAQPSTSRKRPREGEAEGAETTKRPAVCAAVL

[3] = target: G protein-coupled receptor kinase 6 (Homo sapiens, UniProt P43250); experiment: Inhibition of full-length recombinant human GST-tagged GRK6 expressed in baculovirus expression system by Z'-LYTE assay
G protein-coupled receptor kinase 6, sequence (P43250 whole entry): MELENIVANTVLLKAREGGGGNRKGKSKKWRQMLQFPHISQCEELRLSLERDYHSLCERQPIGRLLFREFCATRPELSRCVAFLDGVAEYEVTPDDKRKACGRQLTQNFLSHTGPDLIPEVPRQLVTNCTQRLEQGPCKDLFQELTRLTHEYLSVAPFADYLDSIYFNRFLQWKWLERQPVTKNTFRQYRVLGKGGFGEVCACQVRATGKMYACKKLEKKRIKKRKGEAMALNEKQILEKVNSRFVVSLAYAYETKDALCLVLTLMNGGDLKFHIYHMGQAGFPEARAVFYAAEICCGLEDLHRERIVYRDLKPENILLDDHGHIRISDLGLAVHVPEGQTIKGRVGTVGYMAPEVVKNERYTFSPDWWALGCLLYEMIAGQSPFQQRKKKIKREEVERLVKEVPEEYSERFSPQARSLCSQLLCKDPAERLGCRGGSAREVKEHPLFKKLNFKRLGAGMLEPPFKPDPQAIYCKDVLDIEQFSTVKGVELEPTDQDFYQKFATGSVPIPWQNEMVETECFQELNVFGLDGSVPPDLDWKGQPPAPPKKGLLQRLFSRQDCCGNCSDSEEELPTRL

[4] = target: T2, Inhibitor of nuclear factor kappa-B kinase subunit beta (Homo sapiens, UniProt O14920); experiment: Inhibition of full-length recombinant human GST-tagged IKK-beta expressed in baculovirus expression system by Z'-LYTE assay
T2 sequence (O14920 whole entry): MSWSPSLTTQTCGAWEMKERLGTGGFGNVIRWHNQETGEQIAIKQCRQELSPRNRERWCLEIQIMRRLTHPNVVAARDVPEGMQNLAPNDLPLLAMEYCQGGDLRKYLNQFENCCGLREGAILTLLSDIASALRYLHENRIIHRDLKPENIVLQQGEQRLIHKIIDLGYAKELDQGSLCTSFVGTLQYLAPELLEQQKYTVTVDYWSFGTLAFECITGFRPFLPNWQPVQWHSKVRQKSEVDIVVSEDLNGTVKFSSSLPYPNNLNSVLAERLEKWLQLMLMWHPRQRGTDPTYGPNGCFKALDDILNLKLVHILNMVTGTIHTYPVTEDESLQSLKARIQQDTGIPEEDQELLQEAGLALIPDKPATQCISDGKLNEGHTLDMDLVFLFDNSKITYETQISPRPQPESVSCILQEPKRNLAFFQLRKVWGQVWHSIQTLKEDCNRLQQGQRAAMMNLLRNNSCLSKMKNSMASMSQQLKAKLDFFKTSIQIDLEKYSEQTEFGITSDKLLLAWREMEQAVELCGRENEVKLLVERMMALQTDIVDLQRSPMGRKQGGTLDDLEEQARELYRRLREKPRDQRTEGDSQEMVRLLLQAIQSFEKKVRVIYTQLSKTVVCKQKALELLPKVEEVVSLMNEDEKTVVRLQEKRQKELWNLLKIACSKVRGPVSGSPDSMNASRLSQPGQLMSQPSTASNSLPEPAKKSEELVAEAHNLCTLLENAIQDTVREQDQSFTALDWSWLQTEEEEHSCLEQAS

[5] = target: T3, Dual specificity mitogen-activated protein kinase kinase 6 (Homo sapiens, UniProt P52564); experiment: Inhibition of full-length recombinant human His-tagged MAP2K6 expressed in baculovirus expression system by Z'-LYTE assay
T3 sequence (P52564 whole entry): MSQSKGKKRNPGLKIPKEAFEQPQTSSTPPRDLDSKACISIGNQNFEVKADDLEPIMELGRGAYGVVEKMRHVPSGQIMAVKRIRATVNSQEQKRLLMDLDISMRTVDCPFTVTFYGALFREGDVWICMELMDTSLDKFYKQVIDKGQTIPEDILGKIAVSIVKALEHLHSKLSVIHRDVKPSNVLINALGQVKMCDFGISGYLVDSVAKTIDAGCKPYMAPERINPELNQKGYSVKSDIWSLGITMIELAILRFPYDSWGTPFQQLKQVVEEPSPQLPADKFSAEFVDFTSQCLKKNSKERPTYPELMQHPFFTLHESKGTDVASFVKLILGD

[6] = target: MAP kinase-activated protein kinase 2 (Homo sapiens, UniProt P49137); experiment: Inhibition of full-length recombinant human His-tagged MAPKAPK2 expressed in Escherichia coli by Z'-LYTE assay
MAP kinase-activated protein kinase 2, sequence (P49137 whole entry, the tested form may be a part): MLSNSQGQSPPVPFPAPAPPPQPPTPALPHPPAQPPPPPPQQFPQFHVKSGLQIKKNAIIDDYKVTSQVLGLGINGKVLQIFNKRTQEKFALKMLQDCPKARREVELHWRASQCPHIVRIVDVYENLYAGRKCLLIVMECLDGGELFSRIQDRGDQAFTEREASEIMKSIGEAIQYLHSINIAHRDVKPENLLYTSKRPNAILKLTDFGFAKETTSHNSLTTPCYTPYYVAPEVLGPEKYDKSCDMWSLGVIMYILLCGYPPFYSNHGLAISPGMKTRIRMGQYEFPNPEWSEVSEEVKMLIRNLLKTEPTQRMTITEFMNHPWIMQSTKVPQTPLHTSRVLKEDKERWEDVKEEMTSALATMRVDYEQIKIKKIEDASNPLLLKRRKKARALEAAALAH

[7] = target: Hepatocyte growth factor receptor (Homo sapiens, UniProt P08581); experiment: Inhibition of recombinant human N-terminal His-tagged cytoplasmic MET (956 to 1390 residues) expressed in baculovirus expression system by Z'-LYTE assay
Hepatocyte growth factor receptor, sequence (P08581 whole entry, the tested form may be a part): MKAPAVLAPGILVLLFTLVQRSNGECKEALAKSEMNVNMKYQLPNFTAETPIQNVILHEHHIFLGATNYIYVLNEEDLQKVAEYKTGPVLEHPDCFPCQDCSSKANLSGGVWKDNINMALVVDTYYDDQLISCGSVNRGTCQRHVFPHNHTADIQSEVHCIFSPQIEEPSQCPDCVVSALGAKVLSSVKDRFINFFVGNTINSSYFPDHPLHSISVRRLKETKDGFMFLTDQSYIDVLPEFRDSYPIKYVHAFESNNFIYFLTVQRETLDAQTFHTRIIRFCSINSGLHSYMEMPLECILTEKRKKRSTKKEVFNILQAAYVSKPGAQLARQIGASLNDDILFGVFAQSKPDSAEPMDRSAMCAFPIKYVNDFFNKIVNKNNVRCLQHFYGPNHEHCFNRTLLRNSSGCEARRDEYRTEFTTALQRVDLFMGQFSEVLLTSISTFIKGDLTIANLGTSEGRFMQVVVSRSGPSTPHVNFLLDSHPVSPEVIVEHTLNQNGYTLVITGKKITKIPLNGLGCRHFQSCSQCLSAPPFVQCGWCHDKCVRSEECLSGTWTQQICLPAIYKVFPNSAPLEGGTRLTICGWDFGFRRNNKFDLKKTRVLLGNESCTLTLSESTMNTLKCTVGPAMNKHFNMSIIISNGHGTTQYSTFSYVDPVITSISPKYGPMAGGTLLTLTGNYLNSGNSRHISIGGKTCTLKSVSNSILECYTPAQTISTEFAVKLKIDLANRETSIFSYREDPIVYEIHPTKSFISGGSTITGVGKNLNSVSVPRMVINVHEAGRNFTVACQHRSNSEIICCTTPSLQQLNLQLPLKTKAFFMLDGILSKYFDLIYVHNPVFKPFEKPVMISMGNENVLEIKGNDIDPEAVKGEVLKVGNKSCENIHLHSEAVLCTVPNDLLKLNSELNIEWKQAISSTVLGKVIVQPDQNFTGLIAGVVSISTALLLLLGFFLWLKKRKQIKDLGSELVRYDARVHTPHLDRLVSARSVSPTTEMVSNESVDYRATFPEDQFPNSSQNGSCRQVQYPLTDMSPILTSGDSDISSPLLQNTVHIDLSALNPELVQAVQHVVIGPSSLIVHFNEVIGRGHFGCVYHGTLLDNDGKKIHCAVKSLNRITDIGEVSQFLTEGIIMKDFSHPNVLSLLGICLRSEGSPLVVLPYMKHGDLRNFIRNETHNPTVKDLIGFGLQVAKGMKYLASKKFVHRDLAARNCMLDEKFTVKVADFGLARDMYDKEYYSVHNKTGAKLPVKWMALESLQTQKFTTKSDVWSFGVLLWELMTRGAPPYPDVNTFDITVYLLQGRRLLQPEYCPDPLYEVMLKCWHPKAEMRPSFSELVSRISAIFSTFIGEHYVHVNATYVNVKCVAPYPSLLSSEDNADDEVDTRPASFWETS

[8] = target: Rho-associated protein kinase 2 (Homo sapiens, UniProt O75116); experiment: Inhibition of recombinant human N-terminal GST-tagged ROCK2 (1 to 552 residues) catalytic domain expressed in baculovirus expression system by Z'-LYTE assay
Rho-associated protein kinase 2, sequence (O75116 whole entry, the tested form may be a part): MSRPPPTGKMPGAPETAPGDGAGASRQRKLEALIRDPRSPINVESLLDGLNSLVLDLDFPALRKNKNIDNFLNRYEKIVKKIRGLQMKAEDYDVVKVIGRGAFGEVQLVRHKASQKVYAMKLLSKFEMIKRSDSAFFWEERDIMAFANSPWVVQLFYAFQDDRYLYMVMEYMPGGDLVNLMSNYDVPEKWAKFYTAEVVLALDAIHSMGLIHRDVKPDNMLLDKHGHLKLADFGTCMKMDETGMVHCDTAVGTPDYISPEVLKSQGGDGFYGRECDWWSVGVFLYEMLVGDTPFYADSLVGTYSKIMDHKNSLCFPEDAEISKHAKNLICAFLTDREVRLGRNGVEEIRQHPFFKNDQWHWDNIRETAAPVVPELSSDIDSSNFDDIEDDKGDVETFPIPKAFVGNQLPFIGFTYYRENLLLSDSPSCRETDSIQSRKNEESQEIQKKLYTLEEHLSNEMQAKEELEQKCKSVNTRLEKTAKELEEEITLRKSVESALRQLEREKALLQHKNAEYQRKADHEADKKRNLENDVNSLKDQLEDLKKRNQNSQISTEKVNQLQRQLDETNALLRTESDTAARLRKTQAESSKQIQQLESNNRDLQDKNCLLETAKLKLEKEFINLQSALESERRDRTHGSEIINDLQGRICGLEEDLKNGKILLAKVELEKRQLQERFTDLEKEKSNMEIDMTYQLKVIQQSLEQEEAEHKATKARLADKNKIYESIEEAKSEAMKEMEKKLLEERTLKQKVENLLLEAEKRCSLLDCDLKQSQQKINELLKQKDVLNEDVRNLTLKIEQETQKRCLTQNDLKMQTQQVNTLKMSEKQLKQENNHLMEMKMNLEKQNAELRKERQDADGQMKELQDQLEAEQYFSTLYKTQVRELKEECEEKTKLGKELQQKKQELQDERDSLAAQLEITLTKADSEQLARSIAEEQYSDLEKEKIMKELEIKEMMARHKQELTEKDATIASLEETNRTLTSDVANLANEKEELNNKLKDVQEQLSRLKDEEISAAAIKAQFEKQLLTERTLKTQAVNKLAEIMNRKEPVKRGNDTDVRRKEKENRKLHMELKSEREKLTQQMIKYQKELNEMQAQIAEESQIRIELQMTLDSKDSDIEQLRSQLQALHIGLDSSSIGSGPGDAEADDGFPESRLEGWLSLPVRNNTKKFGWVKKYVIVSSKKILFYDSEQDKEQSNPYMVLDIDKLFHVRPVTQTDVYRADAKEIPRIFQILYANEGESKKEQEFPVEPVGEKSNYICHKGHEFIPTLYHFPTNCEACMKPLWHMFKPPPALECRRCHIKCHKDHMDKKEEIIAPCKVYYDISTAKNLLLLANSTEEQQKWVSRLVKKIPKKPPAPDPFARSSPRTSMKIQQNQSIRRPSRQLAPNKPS

[9] = target: T4, Serine/threonine-protein kinase Sgk1 (Homo sapiens, UniProt O00141); experiment: Inhibition of recombinant human GST-tagged SGK catalytic domain expressed in baculovirus expression system by Z'-LYTE assay
T4 sequence (O00141 whole entry): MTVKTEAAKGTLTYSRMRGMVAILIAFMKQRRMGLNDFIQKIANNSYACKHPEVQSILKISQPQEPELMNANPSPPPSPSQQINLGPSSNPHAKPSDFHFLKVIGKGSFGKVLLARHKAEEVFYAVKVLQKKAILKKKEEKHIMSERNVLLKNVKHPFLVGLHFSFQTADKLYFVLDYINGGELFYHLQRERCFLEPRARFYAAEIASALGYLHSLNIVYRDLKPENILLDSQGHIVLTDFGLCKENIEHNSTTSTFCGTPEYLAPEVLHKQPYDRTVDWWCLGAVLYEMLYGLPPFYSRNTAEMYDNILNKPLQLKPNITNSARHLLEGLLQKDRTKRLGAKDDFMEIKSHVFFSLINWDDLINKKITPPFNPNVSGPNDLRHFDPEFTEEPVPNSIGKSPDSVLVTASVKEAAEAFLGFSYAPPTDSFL

## Cn1cc(-c2cnc3c(-c4csc(C(=O)NCC(F)(F)F)c4)cnn3c2)cn1
[1]
  IC50: > 100 µM
[2]
  IC50: 0.42 µM
[3]
  IC50: > 100 µM
[4]
  IC50: > 100 µM
[5]
  IC50: 35 µM
[6]
  IC50: > 100 µM
[7]
  IC50: 4 µM
[8]
  IC50: 0.56 µM
[9]
  IC50: 0.063 µM

## Cc1sc(C(=O)N[C@@H]2[C@H](N)CCCC2(F)F)cc1-c1cnn2cc(Cl)cnc12
[1]
  IC50: 29 µM
[2]
  IC50: 0.39 µM
[3]
  IC50: 1.7 µM
[4]
  IC50: 31 µM
[5]
  IC50: 3.3 µM
[6]
  IC50: 7.8 µM
[7]
  IC50: 8.5 µM
[8]
  IC50: 1.1 µM
[9]
  IC50: 0.81 µM

## O=C(NCC(F)(F)F)c1cc(-c2cnn3cc(-c4ccc(OCCN5CCCCC5)cc4)cnc23)cs1
[1]
  IC50: 55 µM
[2]
  IC50: 0.45 µM
[3]
  IC50: 17 µM
[4]
  IC50: 55 µM
[5]
  IC50: 19 µM
[6]
  IC50: 55 µM
[7]
  IC50: 1.4 µM
[8]
  IC50: 0.43 µM
[9]
  IC50: 0.027 µM

## Cn1cc(-c2cnc3c(-c4csc(C(=O)N[C@@H]5CCCC[C@@H]5N)c4)cnn3c2)cn1 (racemic)
[1]
  IC50: > 10 µM
[2]
  IC50: 0.024 µM
[3]
  IC50: 0.5 µM
[4]
  IC50: > 10 µM
[5]
  IC50: 0.29 µM
[6]
  IC50: 0.39 µM
[7]
  IC50: 0.41 µM
[8]
  IC50: 0.052 µM
[9]
  IC50: 0.2 µM
